Results: patent US20240124594A1, “TREATMENT OF CVD AND SYSTEMIC SCEROSIS WITH BETA-1 ADRENERGIC RECEPTOR ANTIBODIES” (The Cleveland Clinic Foundation, priority 2021, published 2024)

Legend:
human cardiac β1AR = target: T1, human cardiac β1AR (Homo sapiens, UniProt P08588); experiment: AC activity in cardiac plasma membranes from non-failing donor human hearts; assay type: biochemical; settings: agent alone, absence of IgG3 autoantibodies
T1 construct: non-failing human hearts were used as an endogenous system; tissue Cleveland Clinic's Tissue Bank; host or cells: non-failing donor human heart, plasma membrane fraction
T1 sequence (P08588 whole entry): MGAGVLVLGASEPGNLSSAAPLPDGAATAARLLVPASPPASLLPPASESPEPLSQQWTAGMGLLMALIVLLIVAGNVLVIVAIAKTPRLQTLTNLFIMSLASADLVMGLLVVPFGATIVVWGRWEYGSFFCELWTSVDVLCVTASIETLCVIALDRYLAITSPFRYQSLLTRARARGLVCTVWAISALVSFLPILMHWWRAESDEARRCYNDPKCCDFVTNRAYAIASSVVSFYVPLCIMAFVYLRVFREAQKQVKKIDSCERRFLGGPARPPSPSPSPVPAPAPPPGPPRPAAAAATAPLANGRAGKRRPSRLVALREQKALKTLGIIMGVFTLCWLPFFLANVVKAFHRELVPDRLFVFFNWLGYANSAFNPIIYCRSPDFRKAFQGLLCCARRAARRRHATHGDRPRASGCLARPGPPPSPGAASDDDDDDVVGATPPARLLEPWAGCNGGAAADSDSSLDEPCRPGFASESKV
Experimental: (§1) Briefly the treated cells were scraped using osmotic lysis buffer (5 mM Tris-HCl, pH 7.4; 5 mM EDTA; 1 mM PMSF; 2 μg/mL Leupeptin and 1 μg/mL Aprotinin) and homogenized by douncing. Cardiac tissue samples from non-failing human hearts were homogenized in osmotic lysis buffer using Polytron® homogenizer. This was followed by toggling the samples for 10 mins. The intact cells and nuclei were removed by centrifuging these samples at 2500 rpm for 5 mins. The collected supernatant was centrifuged at 17500 rpm for 30 minutes to obtain the plasma membrane as pellet. All the above steps were performed at 4° C.

human β1AR [1] = target: T2, human β1AR (Homo sapiens, UniProt P08588); experiment: phospho-ERK immunoblotting in β1AR-HEK 293 cells; settings: agent alone
T2 sequence (P08588 whole entry): as above

human β1AR [2] = target: T2, human β1AR; experiment: cAMP generation in β1AR-HEK 293 cells (Catchpoint cAMP kit); settings: agent alone, 10 μM for 10 min, serum starved cells, vs control
Experimental: cAMP generation assay was performed using whole cell lysates. The assay was done using the standard manufacturer's protocol.

human β1AR [3] = target: T2, human β1AR; experiment: Adenylyl cyclase (AC) assay on plasma membranes of HEK-β1AR cells (G-protein coupling); assay type: biochemical; parameters: FLAG; expressed in transfected cells; pcDNA3.1(-) plasmid, a gift from Dr. Yang K. Xiang; settings: agent alone, isolated plasma membranes
Experimental: as §1

## CC(CCc1ccc(O)cc1)NCCc1ccc(O)c(O)c1 (stereo not shown) [Dob, dobutamine]
Human cardiac β1AR
  AC activity: activating AC activity
Human β1AR [1]
  ERK phosphorylation: significantly increased
Human β1AR [2]
  cAMP generation: significantly increased
Human β1AR [3]
  AC activity: significantly increased AC activity
